Measured values taken from patent US20240293380A1, “PROTEASE INHIBITORS AND METHODS OF USE” (priority 2021, published 2024).

Tests used:
SARS-CoV-2 3CLpro = SARS-CoV-2 3CLpro (Severe acute respiratory syndrome coronavirus 2 (2019-nCoV) (SARS-CoV-2), UniProt P0DTD1); assay type: biochemical
SARS-CoV-2 = assay: microbe, parasite or virus in culture; assay type: cell-based, SARS-Related Coronavirus 2, Isolate USA-WA1/2020; conditions: Severe acute respiratory syndrome coronavirus 2, Vero C1008

O=C(Cc1cncc2ccccc12)N(Cc1cc(F)cc(Cl)c1)c1ccc(-c2c[nH]cn2)cc1 [Compound 12, N-[(3-chloro-5-fluoro-phenyl)methyl]-N-[4-(1H-imidazol-4-yl)phenyl]-2-(4-isoquinolyl)acetamide]
IC50 (SARS-CoV-2 3CLpro): 15 nM
EC50 (SARS-CoV-2): 1140 nM

NC(=O)c1ccc(N(Cc2cc(F)cc(F)c2)C(=O)Cc2cncc3ccccc23)cc1 [Compound 51]
IC50 (SARS-CoV-2 3CLpro): 100 nM

O=C(Cc1cccnn1)N(Cc1cc(F)cc(Cl)c1)c1ccc(-c2c[nH]cn2)cc1 [Compound 52]
IC50 (SARS-CoV-2 3CLpro): 389 nM

COc1ccc(F)cc1CN(C(=O)Cc1cncc2ccccc12)c1ccc(-c2c[nH]cn2)cc1 [Compound 53]
IC50 (SARS-CoV-2 3CLpro): 179 nM

COc1cc(F)cc(CN(C(=O)Cc2cncc3ccccc23)c2ccc(-c3c[nH]cn3)cc2)c1 [Compound 54]
IC50 (SARS-CoV-2 3CLpro): 90 nM

O=C(Cc1cnccn1)N(Cc1cc(F)cc(Cl)c1)c1ccc(-c2c[nH]cn2)cc1 [Compound 55]
IC50 (SARS-CoV-2 3CLpro): 2040 nM

O=C(Cc1cncc2ccccc12)N(Cc1cc(F)cc(F)c1)c1ccc(C2=CCNC2)cc1 [Compound 56]
IC50 (SARS-CoV-2 3CLpro): 139 nM

O=C(Cc1cncc2ccccc12)N(Cc1cc(F)cc(Cl)c1)c1ccc(C2=CCNC2)cc1 [Compound 57]
IC50 (SARS-CoV-2 3CLpro): 81 nM

O=C(Cc1cncc2ccccc12)N(Cc1ccc(Cl)c(F)c1)c1ccc(-c2c[nH]cn2)cc1 [Compound 58]
IC50 (SARS-CoV-2 3CLpro): 1090 nM

O=C1Nc2ccccc2C1CC(=O)N(Cc1cc(F)cc(Cl)c1)c1ccc(-c2c[nH]cn2)cc1 (centres unmarked) [Compound 59]
IC50 (SARS-CoV-2 3CLpro): 6240 nM

O=C(Cc1cncc2ccccc12)N(Cc1cncc(F)c1)c1ccc(C2CNC2)cc1 [Compound 60]
IC50 (SARS-CoV-2 3CLpro): 193 nM

O=C(Cc1cncc2ccccc12)N(Cc1cc(F)cc(OC(F)(F)F)c1)c1ccc(-c2c[nH]cn2)cc1 [Compound 61]
IC50 (SARS-CoV-2 3CLpro): 113 nM

O=C(Cc1cncc2ccccc12)N(Cc1cc(F)cc(F)c1)c1ccc(C2CNC2)cc1 [Compound 62]
IC50 (SARS-CoV-2 3CLpro): 69 nM

CC(C)(C)NC(=O)C(c1cc(F)cc(F)c1)N(C(=O)Cc1cncc2ccccc12)c1ccc(C2=CCNC2)cc1 (centres unmarked) [Compound 63]
IC50 (SARS-CoV-2 3CLpro): 1030 nM

CC(C)(C)NC(=O)C(c1cc(F)cc(F)c1)N(C(=O)Cc1cncc2ccccc12)c1ccc(-c2c[nH]cn2)cc1 (centres unmarked) [Compound 64]
IC50 (SARS-CoV-2 3CLpro): 231 nM

O=C(Cc1cncc(Br)c1)N(Cc1cc(F)cc(F)c1)c1ccc(-c2c[nH]cn2)cc1 [Compound 65]
IC50 (SARS-CoV-2 3CLpro): 187 nM

Cc1cncc(CC(=O)N(Cc2cc(F)cc(F)c2)c2ccc(-c3c[nH]cn3)cc2)c1 [Compound 66]
IC50 (SARS-CoV-2 3CLpro): 103 nM

O=C(Cc1cncc(C2CC2)c1)N(Cc1cc(F)cc(F)c1)c1ccc(-c2c[nH]cn2)cc1 [Compound 67]
IC50 (SARS-CoV-2 3CLpro): 161 nM

O=C(Cc1cncc2ccccc12)N(Cc1cncc(F)c1)c1ccc(C2=CCNC2)cc1 [Compound 68]
IC50 (SARS-CoV-2 3CLpro): 608 nM

O=C(Cc1cncc(F)c1)N(Cc1cc(F)cc(Cl)c1)c1ccc(-c2c[nH]cn2)cc1 [Compound 69]
IC50 (SARS-CoV-2 3CLpro): 220 nM

Cc1cncc(CC(=O)N(Cc2cc(F)cc(Cl)c2)c2ccc(-c3c[nH]cn3)cc2)c1 [Compound 70]
IC50 (SARS-CoV-2 3CLpro): 84 nM

O=C(Cc1cncc(C2CC2)c1)N(Cc1cc(F)cc(Cl)c1)c1ccc(-c2c[nH]cn2)cc1 [Compound 71]
IC50 (SARS-CoV-2 3CLpro): 115 nM

O=C(Cc1cncc2ccccc12)N(Cc1cc(F)cc(Cl)c1)c1ccc(C2CNC2)cc1 [Compound 72]
IC50 (SARS-CoV-2 3CLpro): 56 nM

O=C(Cc1nncc2ccccc12)N(Cc1cc(F)cc(Cl)c1)c1ccc(-c2c[nH]cn2)cc1 [Compound 73]
IC50 (SARS-CoV-2 3CLpro): 61 nM

NCc1ccc(N(Cc2cc(F)cc(F)c2)C(=O)Cc2cncc3ccccc23)cc1 [Compound 74]
IC50 (SARS-CoV-2 3CLpro): 76 nM

O=C(Cc1cnccc1C(F)(F)F)N(Cc1cc(F)cc(Cl)c1)c1ccc(-c2c[nH]cn2)cc1 [Compound 75]
IC50 (SARS-CoV-2 3CLpro): 1000 nM

O=C(Cc1cnccc1Cl)N(Cc1cc(F)cc(Cl)c1)c1ccc(-c2c[nH]cn2)cc1 [Compound 76]
IC50 (SARS-CoV-2 3CLpro): 311 nM

Cc1ccncc1CC(=O)N(Cc1cc(F)cc(Cl)c1)c1ccc(-c2c[nH]cn2)cc1 [Compound 77]
IC50 (SARS-CoV-2 3CLpro): 136 nM

COc1ccncc1CC(=O)N(Cc1cc(F)cc(Cl)c1)c1ccc(-c2c[nH]cn2)cc1 [Compound 78]
IC50 (SARS-CoV-2 3CLpro): 222 nM

O=C(Cc1cncc(C2CC2)c1)N(Cc1cc(F)cc(Cl)c1)c1ccc(C2CNC2)cc1 [Compound 79]
IC50 (SARS-CoV-2 3CLpro): 112 nM

Cc1cncc(CC(=O)N(Cc2cc(F)cc(Cl)c2)c2ccc(C3CNC3)cc2)c1 [Compound 80]
IC50 (SARS-CoV-2 3CLpro): 110 nM

O=C(Cc1cncc(F)c1)N(Cc1cncc(F)c1)c1ccc(-c2c[nH]cn2)cc1 [Compound 81]
IC50 (SARS-CoV-2 3CLpro): 1310 nM

O=C(Cc1nncc2ccccc12)N(Cc1cc(F)cc(Cl)c1)c1ccc(C2CNC2)cc1 [Compound 82, N-(4-(azetidin-3-yl)phenyl)-N-(3-chloro-5-fluorobenzyl)-2-(phthalazin-1-yl)acetamide]
IC50 (SARS-CoV-2 3CLpro): 70 nM

O=C(Cc1cncc(F)c1)N(Cc1cncc(F)c1)c1ccc(C2CNC2)cc1 [Compound 83]
IC50 (SARS-CoV-2 3CLpro): 5220 nM
